Measurements published in patent US5922871A, “Terephthalamide derivatives” (Dongwha Pharmaceutical Ind. Co., Ltd., priority 1997, dated 1999).

Key:
[1] = biological target: T1, HBV polymerase reverse transcriptase (HBV-RT) (Hepatitis B virus genotype D subtype ayw, UniProt P03156); experiment: inhibitory activity against HBV polymerase in vitro (reverse transcriptase activity); format: biochemical; conditions: read-out: Inhibitory effect of HBV-RT
T1 construct: made in house; host or cells: E. coli
T1 sequence (P03156 whole entry): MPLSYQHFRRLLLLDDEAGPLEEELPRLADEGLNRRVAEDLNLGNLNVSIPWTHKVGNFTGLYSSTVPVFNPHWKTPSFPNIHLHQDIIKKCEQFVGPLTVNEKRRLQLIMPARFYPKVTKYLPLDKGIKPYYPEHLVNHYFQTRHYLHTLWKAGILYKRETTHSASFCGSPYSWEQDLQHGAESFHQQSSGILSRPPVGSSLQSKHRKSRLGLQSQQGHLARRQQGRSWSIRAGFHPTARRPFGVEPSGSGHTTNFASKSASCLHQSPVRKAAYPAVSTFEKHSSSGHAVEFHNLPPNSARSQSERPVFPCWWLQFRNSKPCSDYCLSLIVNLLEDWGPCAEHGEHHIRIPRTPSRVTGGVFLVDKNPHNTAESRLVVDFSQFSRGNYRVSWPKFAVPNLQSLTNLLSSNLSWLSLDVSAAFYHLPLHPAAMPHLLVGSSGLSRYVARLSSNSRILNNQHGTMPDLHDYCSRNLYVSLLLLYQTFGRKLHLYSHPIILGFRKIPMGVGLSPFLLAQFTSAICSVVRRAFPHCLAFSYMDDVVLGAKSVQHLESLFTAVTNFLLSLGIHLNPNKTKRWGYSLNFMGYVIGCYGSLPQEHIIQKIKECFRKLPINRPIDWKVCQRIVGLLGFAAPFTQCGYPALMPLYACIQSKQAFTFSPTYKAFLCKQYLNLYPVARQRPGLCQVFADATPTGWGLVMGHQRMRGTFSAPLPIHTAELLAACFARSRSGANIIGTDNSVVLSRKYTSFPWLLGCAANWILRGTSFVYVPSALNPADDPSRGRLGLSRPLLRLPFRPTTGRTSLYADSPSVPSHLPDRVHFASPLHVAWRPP
Source text: Experiment 1: The inhibitory activity against HBV polymerase in vitro.
Recently, the inventors of the present invention have produced a recombinant HBV polymerase that is expressed from E.coli transformant, measured its enzyme activity and filed patent applications thereof [Korean Patent Application Nos. 94-3918, 96-33998 and 96-63255].
The inventions have established a method of measuring the reverse transcriptase activity of HBV polymerase in vitro. The fundamental principle is the same as the ELISA method, and after reacting the substrate with biotin- and DIG-modified nucleotide, a method of recognizing the polymerized substrate as anti-DIG antibody with peroxidase was used. […] and 20 μ of test compound were mixed and reacted at 14~30° C. for 18~24 hours. Then, the inhibitory effect of test compound against reverse trascriptase activity in the HBV polymerase was examined, compared with the results of control tests without the test compound.

[2] = biological target: T2, HIV reverse transcriptase (HIV-RT) (Human immunodeficiency virus type 1 group M subtype B, UniProt P04585); experiment: in vitro inhibition test against HIV reverse transcriptase; format: biochemical, HIV (AIDS virus); conditions: read-out: Inhibitory effect of HIV-RT
T2 construct: purchased Boehringer Mannheim
Description: Experiment 3: The in vitro inhibition test against HIV reverse transcriptase
The inhibitory activity in vitro was measured using a non-radioactive reverse transcriptase assay Kit (Boehringer Mannheim).
At first, 20 μl(40 ng) HIV-RT was added to the wells coated with streptavidin and with the addition of 20 μl, reaction mixture containing template/primer hybrid poly(A)/oligo(dT)15 and DIG-(digoxigenin)-dUTP, biotin-dUTP and TTP, 20 μl test compound was added and reacted at 37° C. for 1 hour. The control without test compound was used for the comparison of related activity. Since DNA containing nucleotide labeled with digoxigenin and biotine was prepared by the action of HIV-RT, it was combined with streptavidin coated at the bottom of the wells. After the reaction was completed, remaining impurities were removed by washing each well with 20 μl buffer solution (pH 7.0) for 30 seconds 5 times and with the addition of 200 μl anti-DIG-POD antibody, the mixture was reacted at 37° C. for 1 hour. For the removal of remaining impurities again, the reacting solution was washed with a buffer solution and with the addition of 200μl ABTS™ each, a substrate of POD(peroxidase), the solution was reacted at room temperature for 30 minutes. The absorbance was read by ELISA reader at 405 nm for the assay of reverse transcriptase activity and its inhibition activity.

[3] = biological target: T3, RNase H of HBV polymerase (HBV-RNase H) (Hepatitis B virus ayw/France/Tiollais/1979, UniProt P03156); experiment: inhibitory effects against RNase H activity of HBV polymerase; format: biochemical; conditions: read-out: Inhibitory effect of HBV-RNase H
T3 construct: amylose/maltose step implies MBP fusion
T3 sequence (P03156 680-832): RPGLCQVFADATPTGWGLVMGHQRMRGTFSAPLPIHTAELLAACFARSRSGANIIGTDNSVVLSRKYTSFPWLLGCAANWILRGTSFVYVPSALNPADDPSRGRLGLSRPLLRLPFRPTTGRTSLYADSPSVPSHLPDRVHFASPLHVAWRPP
Description: Experiment 2: The inhibitory effects against RNase H activity of HBV polymerase.
1) Expression of the RNase H domain derived from human HBV polymerase
E.coli NM 522 was transformed by the expression vector pMRH respectively and the transformants were cultured in LB medium at 37° C., overnight. These growing cultures were diluted 1:100, inoculated into a glucose rich medium and incubated until OD600 reached 0.5. Then IPTG (isopropylthiogalactoside) was added into the medium of which the fine concentration was 0.5 mM. The above growing cultures were incubated again at 20° C. for 16 hours and the RNase H domain was expressed.
The above cultured broth was centrifuged for 10 minutes at 3,000 rpm and the cell pellet was washed with 10 ml of TNE column buffer (10 mN Tris-Cl, pH 8.0, 200 mM NaCl, 1 mM EDTA), and resuspended in 10 ml of TNE column buffer. The cells were freezed and thawed 4 times repeatedly, and then disrupted by sonication for 10 seconds 3 times. The crude extract prepared in the above process was centrifuged for 30 minutes at 13,000 rpm, 4° C. and the supernatant was separated. The above process was repeated 2 times and then the supernatant passed the amylose resin. The resin was washed by using column buffer with 50 times of resin volume, and the RNase H domain was eluted by using buffer containing 10 mM maltose.
In addition, the RNase H domain produced from the expression vector pMRH was purified by using histidine tag affinity column, because RNase H has a histidine tag at the C-terminus. The resin (Ni-NTA, QIAGEN) used in the histidine tag affinity column was activated by using sonication buffer (50 mM sodium phosphate, pH 8.0, 300 mM sodium chloride) and 4~5 ml of the activated resin was charged in the glass tube whose diameter was about 1 cm. The protein sample obtained from above description passed the resin at the 0.1 ml/ min flow rate and the column was washed by using washing buffer with the 100~200 times volume of protein sample (50 mM sodium phosphate, pH 6.0, 300 mM sodium chloride, 10% glycerol). The recombinant protein was eluted by washing the column with concentration gradient of 0.01~0.5 M imidazole.
As a result, the active RNase H domain was separated from the histidine tag affinity column at 30 mM concentration of imidazole. The purified RNase H domain was mixed with 50% glycerol for storage at -20° C. after the removal of imidazole from it and employed fol the screening of HBV inhibitors.
2) Preparation of the substrate of the RNase H enzyme
In order to identify the RNase H activity, RNA/DNA complex which can be used as a substrate of the RNase H enzyme was prepared by performing in vitro transcription with […].
3) Screening of active inhibitors against RNase H
The RNase H activity was measured by using recombinant RNase H enzyme and radiolabled RNA/DNA hybrid. In order to measure the RNase H activity, 1 μg of RNase H enzyme and test compound were mixed with buffer solution containing 40 mM Tris-Cl (pH 8.0), 4 mM magnesium chloride, 40 mM potassium chloride and 2 mM DTT. The mixture was pretreated on ice for 10 minutes. After pretreatment is completed, RNA/DNA hybrid was added to incubate at 37° C. for 3 hours. After the reaction was stopped, 7.5 M ammonium acetate in a volume of 1/2 and ethanol in a 3-fold volume were added. The above reaction mixture was incubated at -20° C. for more than 2 hours and centrifuged for 15 minutes at 4° C., 13,000 rpm. The supernatant was obtained and the radioactive signal of supernatant was measured by scintillation counter.
As a control, water was added instead of test compound and the inhibitory activity was calculated to compare with the control, when the radioactivity intensity on each test compound, was obtained.

CC(C)Nc1cccnc1N1CCN(C(=O)c2ccc(C(=O)N(C)CC3OCCO3)cc2)CC1 [Compound No. 71, 1-[N-[(1,3-Dioxolan-2-yl)methyl]-N-methylcarbamoyl]-4-[1-[3-(isopropylamino)-2-pyridyl]piperazin-4-yl-carbonyl]benzene]
inhibition at 0.1 µg/mL ([1]; 0.1 μg/ml): 35% | inhibition at 1 µg/mL ([1]; 1 μg/ml): 51% | inhibition at 0.1 µg/mL ([2]; 0.1 μg/ml): 68% | inhibition at 1 µg/mL ([2]; 1 μg/ml): 70% | inhibition at 0.1 µg/mL ([3]; 0.1 μg/ml): 56% | inhibition at 1 µg/mL ([3]; 1 μg/ml): 62%
